Reference: PMC6409085, “Three odorant-binding proteins are involved in the behavioral response of Sogatella furcifera to rice plant volatiles” (PeerJ, 2019)
Values joined by “and” are separate entries in the source; they are usually repeats but may differ in a detail not shown here. Identical values can stand only once.

Columns and labels:
SfurOBP1 = SfurOBP1 (Sogatella furcifera, UniProt V5T8N5); experiment: biochemical; assay type: binding; conditions: for Fluorescence competitive binding assay, fluorescence intensity: OBP1, three replicate columns
Sequence of SfurOBP1 (V5T8N5 entry or part of it): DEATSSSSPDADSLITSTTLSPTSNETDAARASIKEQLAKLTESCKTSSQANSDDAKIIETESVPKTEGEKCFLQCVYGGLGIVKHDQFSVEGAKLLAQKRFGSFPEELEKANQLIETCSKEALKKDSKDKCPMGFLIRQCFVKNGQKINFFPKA
Method in brief: (§1)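 Fluorescence competitive binding used 2.0 µM SfurOBP and 2.0 µM 1-NPN reporter in 50 mM Tris-HCl, pH 7.4, with odorants at 2-20 µM. Fluorescence was read 2 min after adding the odorant (excitation 337 nm, emission 390-490 nm), in triplicate. Ki was calculated from IC50 as IC50/(1 + [1-NPN]/K1-NPN).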

SfurOBP11 = SfurOBP11 (Sogatella furcifera, UniProt V5T6E3); experiment: biochemical; assay type: binding
Sequence of SfurOBP11 (V5T6E3 entry or part of it): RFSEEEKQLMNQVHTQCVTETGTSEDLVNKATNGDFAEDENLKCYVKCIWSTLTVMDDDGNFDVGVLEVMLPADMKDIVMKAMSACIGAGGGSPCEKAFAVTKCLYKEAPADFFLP
Method in brief: as §1

SfurOBP2 = SfurOBP2 (Sogatella furcifera, UniProt V5T759); experiment: biochemical; assay type: binding
Sequence of SfurOBP2 (V5T759 entry or part of it): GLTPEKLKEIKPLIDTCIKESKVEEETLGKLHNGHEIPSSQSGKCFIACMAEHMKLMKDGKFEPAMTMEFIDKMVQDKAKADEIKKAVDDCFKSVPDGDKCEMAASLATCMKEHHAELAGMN
Method in brief: as §1

SfurOBP3 = SfurOBP3 (Sogatella furcifera, UniProt V5T818); experiment: biochemical; assay type: binding; conditions: for Fluorescence competitive binding assay, fluorescence intensity: OBP3, three replicate columns;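 as to Fluorescence competitive binding assay, fluorescence intensity: competitor odorant at 2 to 20 µM with protein and 1-NPN both 2.0 µM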
Sequence of SfurOBP3 (V5T818 entry or part of it): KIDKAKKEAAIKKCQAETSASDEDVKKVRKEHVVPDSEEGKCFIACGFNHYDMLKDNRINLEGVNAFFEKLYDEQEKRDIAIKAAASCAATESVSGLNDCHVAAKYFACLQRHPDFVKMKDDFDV
Method in brief: as §1

S. furcifera adults = experiment: Y-tube olfactometer behavioral trials; assay type: in vivo, Sogatella furcifera; conditions: odorant 50 µL/L vs hexane; adults
Method in brief: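 Single S. furcifera adults (2 days post-emergence, starved 0.5 h) chose between odorant (100 µL of 50 µL/L on filter paper) and hexane control in a glass Y-tube, charcoal-filtered humidified air 300 mL/min per arm, 25 ± 1 °C, 50% RH. Choice scored if insect passed half an arm and stayed >1 min within 10 min; 45 insects per compound, chi-squared test.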
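For Fluorescence competitive binding assay, fluorescence intensity in this document: competitor odorant at 2 to 20 µM with protein and 1-NPN both 2.0 µM.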

SMILES: OC1CCCCC1 [cyclohexanol]
- IC50 (SfurOBP1): > 20 µM
- Fluorescence competitive binding assay, fluorescence intensity (SfurOBP1; ligand concentration 2 (μM)): 5844 and 5673 and 6371
- Fluorescence competitive binding assay, fluorescence intensity (SfurOBP1; ligand concentration 4 (μM)): 9311 and 8690 and 9932
- Fluorescence competitive binding assay, fluorescence intensity (SfurOBP1; ligand concentration 6 (μM)): 6443 and 7058 and 7039
- Fluorescence competitive binding assay, fluorescence intensity (SfurOBP1; ligand concentration 8 (μM)): 6837 and 7313 and 7729
- Fluorescence competitive binding assay, fluorescence intensity (SfurOBP1; ligand concentration 10 (μM)): 8238 and 7697 and 7236
- Fluorescence competitive binding assay, fluorescence intensity (SfurOBP1; ligand concentration 12 (μM)): 6489 and 6472 and 7355
- Fluorescence competitive binding assay, fluorescence intensity (SfurOBP1; ligand concentration 14 (μM)): 7069 and 6354 and 7092
- Fluorescence competitive binding assay, fluorescence intensity (SfurOBP1; ligand concentration 16 (μM)): 6030 and 6324 and 7260
- Fluorescence competitive binding assay, fluorescence intensity (SfurOBP1; ligand concentration 18 (μM)): 9356 and 7906 and 7474
- Fluorescence competitive binding assay, fluorescence intensity (SfurOBP1; ligand concentration 20 (μM)): 8046 and 8689 and 8368
- IC50 (SfurOBP11): > 20 µM
- Fluorescence intensity, fluorescence competitive binding assay, OBP11 (SfurOBP11; ligand concentration 2, replicate 1): 24375
- Fluorescence intensity, fluorescence competitive binding assay, OBP11 (SfurOBP11; ligand concentration 2, replicate 2): 24650
- Fluorescence intensity, fluorescence competitive binding assay, OBP11 (SfurOBP11; ligand concentration 2, replicate 3): 24939
- Fluorescence intensity, fluorescence competitive binding assay, OBP11 (SfurOBP11; ligand concentration 4, replicate 1): 24494
- Fluorescence intensity, fluorescence competitive binding assay, OBP11 (SfurOBP11; ligand concentration 4, replicate 2): 24823
- Fluorescence intensity, fluorescence competitive binding assay, OBP11 (SfurOBP11; ligand concentration 4, replicate 3): 24654
- Fluorescence intensity, fluorescence competitive binding assay, OBP11 (SfurOBP11; ligand concentration 6, replicate 1): 24316
- Fluorescence intensity, fluorescence competitive binding assay, OBP11 (SfurOBP11; ligand concentration 6, replicate 2): 24699
- Fluorescence intensity, fluorescence competitive binding assay, OBP11 (SfurOBP11; ligand concentration 6, replicate 3): 24500
- Fluorescence intensity, fluorescence competitive binding assay, OBP11 (SfurOBP11; ligand concentration 8, replicate 1): 24760
- Fluorescence intensity, fluorescence competitive binding assay, OBP11 (SfurOBP11; ligand concentration 8, replicate 2): 24220
- Fluorescence intensity, fluorescence competitive binding assay, OBP11 (SfurOBP11; ligand concentration 8, replicate 3): 24499
- Fluorescence intensity, fluorescence competitive binding assay, OBP11 (SfurOBP11; ligand concentration 10, replicate 1): 22885
- Fluorescence intensity, fluorescence competitive binding assay, OBP11 (SfurOBP11; ligand concentration 10, replicate 2): 23988
- Fluorescence intensity, fluorescence competitive binding assay, OBP11 (SfurOBP11; ligand concentration 10, replicate 3): 24498
- Fluorescence intensity, fluorescence competitive binding assay, OBP11 (SfurOBP11; ligand concentration 12, replicate 1): 23691
- Fluorescence intensity, fluorescence competitive binding assay, OBP11 (SfurOBP11; ligand concentration 12, replicate 2): 23225
- Fluorescence intensity, fluorescence competitive binding assay, OBP11 (SfurOBP11; ligand concentration 12, replicate 3): 24428
- Fluorescence intensity, fluorescence competitive binding assay, OBP11 (SfurOBP11; ligand concentration 14, replicate 1): 22556
- Fluorescence intensity, fluorescence competitive binding assay, OBP11 (SfurOBP11; ligand concentration 14, replicate 2): 23123
- Fluorescence intensity, fluorescence competitive binding assay, OBP11 (SfurOBP11; ligand concentration 14, replicate 3): 22199
- Fluorescence intensity, fluorescence competitive binding assay, OBP11 (SfurOBP11; ligand concentration 16, replicate 1): 21391
- Fluorescence intensity, fluorescence competitive binding assay, OBP11 (SfurOBP11; ligand concentration 16, replicate 2): 22093
- Fluorescence intensity, fluorescence competitive binding assay, OBP11 (SfurOBP11; ligand concentration 16, replicate 3): 21606
- Fluorescence intensity, fluorescence competitive binding assay, OBP11 (SfurOBP11; ligand concentration 18, replicate 1): 23329
- Fluorescence intensity, fluorescence competitive binding assay, OBP11 (SfurOBP11; ligand concentration 18, replicate 2): 23356
- Fluorescence intensity, fluorescence competitive binding assay, OBP11 (SfurOBP11; ligand concentration 18, replicate 3): 23748
- Fluorescence intensity, fluorescence competitive binding assay, OBP11 (SfurOBP11; ligand concentration 20, replicate 1): 23863
- Fluorescence intensity, fluorescence competitive binding assay, OBP11 (SfurOBP11; ligand concentration 20, replicate 2): 23927
- Fluorescence intensity, fluorescence competitive binding assay, OBP11 (SfurOBP11; ligand concentration 20, replicate 3): 23769
- IC50 (SfurOBP2): > 20 µM
- Fluorescence competitive binding assay, OBP2 (raw fluorescence reading) (SfurOBP2; ligand concentration 2 (unit not given), replicate column 1 of 3): 20258
- Fluorescence competitive binding assay, OBP2 (raw fluorescence reading) (SfurOBP2; ligand concentration 2 (unit not given), replicate column 2 of 3): 18511
- Fluorescence competitive binding assay, OBP2 (raw fluorescence reading) (SfurOBP2; ligand concentration 2 (unit not given), replicate column 3 of 3): 18768
- Fluorescence competitive binding assay, OBP2 (raw fluorescence reading) (SfurOBP2; ligand concentration 4 (unit not given), replicate column 1 of 3): 17006
- Fluorescence competitive binding assay, OBP2 (raw fluorescence reading) (SfurOBP2; ligand concentration 4 (unit not given), replicate column 2 of 3): 17312
- Fluorescence competitive binding assay, OBP2 (raw fluorescence reading) (SfurOBP2; ligand concentration 4 (unit not given), replicate column 3 of 3): 19296
- Fluorescence competitive binding assay, OBP2 (raw fluorescence reading) (SfurOBP2; ligand concentration 6 (unit not given), replicate column 1 of 3): 17760
- Fluorescence competitive binding assay, OBP2 (raw fluorescence reading) (SfurOBP2; ligand concentration 6 (unit not given), replicate column 2 of 3): 19185
- Fluorescence competitive binding assay, OBP2 (raw fluorescence reading) (SfurOBP2; ligand concentration 6 (unit not given), replicate column 3 of 3): 18943
- Fluorescence competitive binding assay, OBP2 (raw fluorescence reading) (SfurOBP2; ligand concentration 8 (unit not given), replicate column 1 of 3): 16983
- Fluorescence competitive binding assay, OBP2 (raw fluorescence reading) (SfurOBP2; ligand concentration 8 (unit not given), replicate column 2 of 3): 16921
- Fluorescence competitive binding assay, OBP2 (raw fluorescence reading) (SfurOBP2; ligand concentration 8 (unit not given), replicate column 3 of 3): 18381
- Fluorescence competitive binding assay, OBP2 (raw fluorescence reading) (SfurOBP2; ligand concentration 10 (unit not given), replicate column 1 of 3): 16551
- Fluorescence competitive binding assay, OBP2 (raw fluorescence reading) (SfurOBP2; ligand concentration 10 (unit not given), replicate column 2 of 3): 16106
- Fluorescence competitive binding assay, OBP2 (raw fluorescence reading) (SfurOBP2; ligand concentration 10 (unit not given), replicate column 3 of 3): 17116
- Fluorescence competitive binding assay, OBP2 (raw fluorescence reading) (SfurOBP2; ligand concentration 12 (unit not given), replicate column 1 of 3): 12653
- Fluorescence competitive binding assay, OBP2 (raw fluorescence reading) (SfurOBP2; ligand concentration 12 (unit not given), replicate column 2 of 3): 16542
- Fluorescence competitive binding assay, OBP2 (raw fluorescence reading) (SfurOBP2; ligand concentration 12 (unit not given), replicate column 3 of 3): 15003
- Fluorescence competitive binding assay, OBP2 (raw fluorescence reading) (SfurOBP2; ligand concentration 14 (unit not given), replicate column 1 of 3): 14815
- Fluorescence competitive binding assay, OBP2 (raw fluorescence reading) (SfurOBP2; ligand concentration 14 (unit not given), replicate column 2 of 3): 15068
- Fluorescence competitive binding assay, OBP2 (raw fluorescence reading) (SfurOBP2; ligand concentration 14 (unit not given), replicate column 3 of 3): 14859
- Fluorescence competitive binding assay, OBP2 (raw fluorescence reading) (SfurOBP2; ligand concentration 16 (unit not given), replicate column 1 of 3): 15306
- Fluorescence competitive binding assay, OBP2 (raw fluorescence reading) (SfurOBP2; ligand concentration 16 (unit not given), replicate column 2 of 3): 13071
- Fluorescence competitive binding assay, OBP2 (raw fluorescence reading) (SfurOBP2; ligand concentration 16 (unit not given), replicate column 3 of 3): 13046
- Fluorescence competitive binding assay, OBP2 (raw fluorescence reading) (SfurOBP2; ligand concentration 18 (unit not given), replicate column 1 of 3): 15697
- Fluorescence competitive binding assay, OBP2 (raw fluorescence reading) (SfurOBP2; ligand concentration 18 (unit not given), replicate column 2 of 3): 16234
- Fluorescence competitive binding assay, OBP2 (raw fluorescence reading) (SfurOBP2; ligand concentration 18 (unit not given), replicate column 3 of 3): 16085
- Fluorescence competitive binding assay, OBP2 (raw fluorescence reading) (SfurOBP2; ligand concentration 20 (unit not given), replicate column 1 of 3): 15959
- Fluorescence competitive binding assay, OBP2 (raw fluorescence reading) (SfurOBP2; ligand concentration 20 (unit not given), replicate column 2 of 3): 14904
- Fluorescence competitive binding assay, OBP2 (raw fluorescence reading) (SfurOBP2; ligand concentration 20 (unit not given), replicate column 3 of 3): 13122
- IC50 (SfurOBP3): > 20 µM
- Fluorescence competitive binding assay, fluorescence intensity (SfurOBP3; ligand concentration 2): 73467 and 78493 and 77746
- Fluorescence competitive binding assay, fluorescence intensity (SfurOBP3; ligand concentration 4): 78452 and 70026 and 82856
- Fluorescence competitive binding assay, fluorescence intensity (SfurOBP3; ligand concentration 6): 79407 and 77940 and 78195
- Fluorescence competitive binding assay, fluorescence intensity (SfurOBP3; ligand concentration 8): 71546 and 83168 and 84706
- Fluorescence competitive binding assay, fluorescence intensity (SfurOBP3; ligand concentration 10): 73852 and 75338 and 78193
- Fluorescence competitive binding assay, fluorescence intensity (SfurOBP3; ligand concentration 12): 65457 and 72548 and 71432
- Fluorescence competitive binding assay, fluorescence intensity (SfurOBP3; ligand concentration 14): 60072 and 60001 and 71583
- Fluorescence competitive binding assay, fluorescence intensity (SfurOBP3; ligand concentration 16): 61622 and 57596 and 60550
- Fluorescence competitive binding assay, fluorescence intensity (SfurOBP3; ligand concentration 18): 75606 and 79879 and 73633
- Fluorescence competitive binding assay, fluorescence intensity (SfurOBP3; ligand concentration 20): 63397 and 61447 and 55682
- number of insects choosing hexane arm (S. furcifera adults): 12
- number of insects choosing volatilies arm (S. furcifera adults): 7
- number of insects failed (no choice) (S. furcifera adults): 21
